Measured values published in patent US20240067693A1, “POLYPEPTIDES AND USES THEREOF” (MEDIMMUNE LIMITED, priority 2020, published 2024).
Numbered stars: 1 amine (or outer) side, 2 acyl side, 3 side chain; on linkers, the order of the positions; unused ones are H or OH. Bridge positions count the residues as written; N and C are the ends. Square brackets hold non-standard residues; d marks the D form. Side chains are listed from the residue outwards. Peptide text beside a SMILES is read from it. * marks the point of attachment. C18 diacid = O=C(O)CCCCCCCCCCCCCCCCC(=O)*; γGlu = O=C(O)[C@H](CCC(=O)[*:2])N[*:1]; Aib = CC(C)(N)C(=O)O

How the values were obtained:
[1] = target: T1, human amylin receptor (calcitonin receptor co-expressed with receptor activity modifying protein, RAMP3) (hAMYR3) (Homo sapiens, UniProt O60896+P30988); experiment: cAMP production in 1321N1 cells with stable recombinant expression of human amylin receptor (hAMYR3); type: cell-based; conditions: for Ratio (selectivity hAMYR vs hCTR, ratio of EC50 values at the two receptors): EC50 hCTR / EC50 hAMYR3; for EC50: cAMP, 1321N1 cells, assay buffer with 0.1% BSA, read-out: EC50 (pM) hAMYR3
T1 construct: expressed in transfected cells
T1 sequence (P30988 25-474): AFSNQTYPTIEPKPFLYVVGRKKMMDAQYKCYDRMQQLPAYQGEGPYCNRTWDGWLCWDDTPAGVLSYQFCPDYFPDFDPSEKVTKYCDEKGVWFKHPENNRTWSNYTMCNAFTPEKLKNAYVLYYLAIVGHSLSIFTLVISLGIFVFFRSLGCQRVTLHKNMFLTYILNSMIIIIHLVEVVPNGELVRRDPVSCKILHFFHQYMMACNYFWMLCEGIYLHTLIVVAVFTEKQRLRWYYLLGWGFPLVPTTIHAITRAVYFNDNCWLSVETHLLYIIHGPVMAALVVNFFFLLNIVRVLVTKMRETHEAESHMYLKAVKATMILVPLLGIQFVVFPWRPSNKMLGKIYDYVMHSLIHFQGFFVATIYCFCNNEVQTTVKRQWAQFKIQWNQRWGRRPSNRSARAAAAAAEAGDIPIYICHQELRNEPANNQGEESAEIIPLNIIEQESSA
T1 sequence (O60896 24-148 partner): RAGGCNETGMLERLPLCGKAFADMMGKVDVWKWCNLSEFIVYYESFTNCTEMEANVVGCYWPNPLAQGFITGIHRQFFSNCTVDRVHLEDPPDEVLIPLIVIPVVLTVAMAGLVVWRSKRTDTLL
Procedure, shortened: (§1)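 Receptor-expressing cells (human receptors in 1321N1, rat receptors in HEK) incubated 30 min at room temperature with peptide in HBSS/HEPES pH 7.4, 0.1% BSA, 0.5 mM IBMX. cAMP read by HTRF; EC50 from 4-parameter fit as % of maximal amylin or calcitonin response.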

[2] = target: T2, human calcitonin receptor (hCTR) (Homo sapiens, UniProt P30988); experiment: cAMP production in 1321N1 cells with stable recombinant expression of human calcitonin receptor (hCTR); type: cell-based; conditions: cAMP, 1321N1 cells, assay buffer with 0.1% BSA; read-out: EC50 (pM) hCTR
T2 construct: expressed in transfected cells
T2 sequence (P30988 25-474): T1 sequence (P30988 25-474)
Procedure, shortened: as §1

Ratio (selectivity hAMYR vs hCTR, ratio of EC50 values at the two receptors) [1]	EC50 [1]	EC50 [2]	SMILES
11	231 pM	2520 pM	CC[C@H](C)[C@H](NC(=O)[C@@H]1CCCN1C(=O)CNC(=O)[C@H](Cc1ccccc1)NC(=O)[C@H](CC(N)=O)NC(=O)C(C)(C)NC(=O)[C@H](CO)NC(=O)[C@H](CO)NC(=O)[C@H](Cc1c[nH]cn1)NC(=O)[C@H](CCCNC(=N)N)NC(=O)[C@H](CC(C)C)NC(=O)[C@H](Cc1ccccc1)NC(=O)[C@H](CC(N)=O)NC(=O)[C@H](C)NC(=O)[C@H](CC(C)C)NC(=O)[C@H](CCCNC(=N)N)NC(=O)[C@H](CCC(N)=O)NC(=O)[C@@H](NC(=O)[C@H](C)NC(=O)[C@@H]1CSSC[C@H](NC(=O)[C@@H](N)CCCCNC(=O)CC[C@H](NC(=O)CC[C@H](NC(=O)CCCCCCCCCCCCCCCCC(=O)O)C(=O)O)C(=O)O)C(=O)N[C@@H](CC(N)=O)C(=O)N[C@@H]([C@@H](C)O)C(=O)N[C@@H](C)C(=O)N[C@@H]([C@@H](C)O)C(=O)N1)[C@@H](C)O)C(=O)N[C@@H](CC(C)C)C(=O)N1CCC[C@H]1C(=O)N1CCC[C@H]1C(=O)N[C@H](C(=O)N[C@@H](CCCNC(=N)N)C(=O)N[C@H](C(=O)NCC(=O)N[C@@H](CO)C(=O)N[C@@H](CC(N)=O)C(=O)N[C@H](C(=O)N[C@@H](Cc1ccc(O)cc1)C(N)=O)[C@@H](C)O)C(C)C)[C@@H](C)O [Peptide 77, K(γE-γE-C18diacid)[CNTATC]ATQRLANFLRHSS(Aib)NFGPILPPTRVGSNTY-amide] (H-K([γGlu-γGlu-C18 diacid])CNTATCATQRLANFLRHSS[Aib]NFGPILPPTRVGSNTY-NH2; disulfide 2-7; N-terminus assumed)
11	288 pM	3150 pM	CC(C)C[C@H](NC(=O)[C@H](CCCNC(=N)N)NC(=O)[C@H](CCC(N)=O)NC(=O)[C@@H](NC(=O)[C@H](C)NC(=O)[C@@H]1CSSC[C@H](NC(=O)[C@H](CCCCN)NC(=O)[C@@H](N)CCCCNC(=O)CC[C@H](NC(=O)CCCCCCCCCCCCCCCCC(=O)O)C(=O)O)C(=O)N[C@@H](CC(N)=O)C(=O)N[C@@H]([C@@H](C)O)C(=O)N[C@@H](C)C(=O)N[C@@H]([C@@H](C)O)C(=O)N1)[C@@H](C)O)C(=O)N[C@@H](C)C(=O)N[C@@H](CC(N)=O)C(=O)N[C@@H](Cc1ccccc1)C(=O)N[C@@H](CC(C)C)C(=O)N[C@H](C(=O)N[C@@H](Cc1c[nH]cn1)C(=O)N[C@@H](CO)C(=O)N[C@@H](CO)C(=O)NC(C)(C)C(=O)N[C@@H](CC(N)=O)C(=O)N[C@@H](Cc1ccccc1)C(=O)NCC(=O)N1CCC[C@H]1C(=O)NC(C)(C)C(=O)N[C@@H](CC(C)C)C(=O)N1CCC[C@H]1C(=O)N1CCC[C@H]1C(=O)N[C@H](C(=O)N[C@@H](CC(N)=O)C(=O)N[C@H](C(=O)NCC(=O)N[C@@H](CO)C(=O)N[C@@H](CC(N)=O)C(=O)N[C@H](C(=O)N[C@@H](Cc1ccc(O)cc1)C(N)=O)[C@@H](C)O)C(C)C)[C@@H](C)O)C(C)C [Peptide 78, K(γE-C18diacid)K[CNTATC]ATQRLANFLVHSS(Aib)NFGP(Aib)LPPTNVGSNTY-amide] (H-K([γGlu-C18 diacid])KCNTATCATQRLANFLVHSS[Aib]NFGP[Aib]LPPTNVGSNTY-NH2; disulfide 3-8; N-terminus assumed)

Second part, the compound before the results:

SMILES	Ratio (selectivity hAMYR vs hCTR, ratio of EC50 values at the two receptors) [1]	EC50 [1]	EC50 [2]
CC[C@H](C)[C@H](NC(=O)[C@@H]1CCCN1C(=O)CNC(=O)[C@H](Cc1ccccc1)NC(=O)[C@H](CC(N)=O)NC(=O)C(C)(C)NC(=O)[C@H](CO)NC(=O)[C@H](CO)NC(=O)[C@H](Cc1c[nH]cn1)NC(=O)[C@@H](NC(=O)[C@H](CC(C)C)NC(=O)[C@H](Cc1ccccc1)NC(=O)[C@H](CC(N)=O)NC(=O)[C@H](C)NC(=O)[C@H](CC(C)C)NC(=O)[C@H](CCCNC(=N)N)NC(=O)[C@H](CCC(N)=O)NC(=O)[C@@H](NC(=O)[C@H](C)NC(=O)[C@@H]1CSSC[C@H](NC(=O)[C@H](CCCCN)NC(=O)[C@@H](N)CCCCNC(=O)CC[C@H](NC(=O)CC[C@H](NC(=O)CCCCCCCCCCCCCCCCC(=O)O)C(=O)O)C(=O)O)C(=O)N[C@@H](CC(N)=O)C(=O)N[C@@H]([C@@H](C)O)C(=O)N[C@@H](C)C(=O)N[C@@H]([C@@H](C)O)C(=O)N1)[C@@H](C)O)C(C)C)C(=O)N[C@@H](CC(C)C)C(=O)N1CCC[C@H]1C(=O)N1CCC[C@H]1C(=O)N[C@H](C(=O)N[C@@H](CC(N)=O)C(=O)N[C@H](C(=O)NCC(=O)N[C@@H](CO)C(=O)N[C@@H](CCCNC(=N)N)C(=O)N[C@H](C(=O)N[C@@H](Cc1ccc(O)cc1)C(N)=O)[C@@H](C)O)C(C)C)[C@@H](C)O [Peptide 74, K(γE-γE-C18diacid)K[CNTATC]ATQRLANFLVHSS(Aib)NFGPILPPTNVGSRTY-amide] (H-K([γGlu-γGlu-C18 diacid])KCNTATCATQRLANFLVHSS[Aib]NFGPILPPTNVGSRTY-NH2; disulfide 3-8; N-terminus assumed)	13	356 pM	4570 pM
CC[C@H](C)[C@H](NC(=O)[C@@H]1CCCN1C(=O)CNC(=O)[C@H](Cc1ccccc1)NC(=O)[C@H](CC(N)=O)NC(=O)C(C)(C)NC(=O)[C@H](CO)NC(=O)[C@H](CO)NC(=O)[C@H](Cc1c[nH]cn1)NC(=O)[C@H](CCCNC(=N)N)NC(=O)[C@H](CC(C)C)NC(=O)[C@H](Cc1ccccc1)NC(=O)[C@H](CC(N)=O)NC(=O)[C@H](C)NC(=O)[C@H](CC(C)C)NC(=O)[C@H](CCCNC(=N)N)NC(=O)[C@H](CCC(N)=O)NC(=O)[C@@H](NC(=O)[C@H](C)NC(=O)[C@@H]1CSSC[C@H](NC(=O)[C@@H](N)CCCCNC(=O)CC[C@H](NC(=O)CC[C@H](NC(=O)CCCCCCCCCCCCCCCCC(=O)O)C(=O)O)C(=O)O)C(=O)N[C@@H](CC(N)=O)C(=O)N[C@@H]([C@@H](C)O)C(=O)N[C@@H](C)C(=O)N[C@@H]([C@@H](C)O)C(=O)N1)[C@@H](C)O)C(=O)N[C@@H](CC(C)C)C(=O)N1CCC[C@H]1C(=O)N1CCC[C@H]1C(=O)N[C@H](C(=O)N[C@@H](CC(N)=O)C(=O)N[C@H](C(=O)NCC(=O)N[C@@H](CO)C(=O)N[C@@H](CC(N)=O)C(=O)N[C@H](C(=O)N[C@@H](Cc1ccc(O)cc1)C(N)=O)[C@@H](C)O)C(C)C)[C@@H](C)O [Peptide 75, K(γE-γE-C18diacid)[CNTATC]ATQRLANFLRHSS(Aib)NFGPILPPTNVGSNTY-amide] (H-K([γGlu-γGlu-C18 diacid])CNTATCATQRLANFLRHSS[Aib]NFGPILPPTNVGSNTY-NH2; disulfide 2-7)	99	161 pM	16000 pM
CC[C@H](C)[C@H](NC(=O)[C@@H]1CCCN1C(=O)CNC(=O)[C@H](Cc1ccccc1)NC(=O)[C@H](CC(N)=O)NC(=O)C(C)(C)NC(=O)[C@H](CO)NC(=O)[C@H](CO)NC(=O)[C@H](Cc1c[nH]cn1)NC(=O)[C@H](CCCNC(=N)N)NC(=O)[C@H](CC(C)C)NC(=O)[C@H](Cc1ccccc1)NC(=O)[C@H](CC(N)=O)NC(=O)[C@H](C)NC(=O)[C@H](CC(C)C)NC(=O)[C@H](CCCNC(=N)N)NC(=O)[C@H](CCC(N)=O)NC(=O)[C@@H](NC(=O)[C@H](C)NC(=O)[C@@H]1CSSC[C@H](NC(=O)[C@@H](N)CCCCNC(=O)CC[C@H](NC(=O)CCCCCCCCCCCCCCCCC(=O)O)C(=O)O)C(=O)N[C@@H](CC(N)=O)C(=O)N[C@@H]([C@@H](C)O)C(=O)N[C@@H](C)C(=O)N[C@@H]([C@@H](C)O)C(=O)N1)[C@@H](C)O)C(=O)N[C@@H](CC(C)C)C(=O)N1CCC[C@H]1C(=O)N1CCC[C@H]1C(=O)N[C@H](C(=O)N[C@@H](CCCNC(=N)N)C(=O)N[C@H](C(=O)NCC(=O)N[C@@H](CO)C(=O)N[C@@H](CC(N)=O)C(=O)N[C@H](C(=O)N[C@@H](Cc1ccc(O)cc1)C(N)=O)[C@@H](C)O)C(C)C)[C@@H](C)O [Peptide 76, K(γE-C18diacid)[CNTATC]ATQRLANFLRHSS(Aib)NFGPILPPTRVGSNTY-amide] (H-K([γGlu-C18 diacid])CNTATCATQRLANFLRHSS[Aib]NFGPILPPTRVGSNTY-NH2; disulfide 2-7; N-terminus assumed)	107	209 pM	22300 pM
